The record followed here is patent publication US8138159B2, “Composition for inhibiting function of human Flt3” (Takara Bio Inc., priority 2003, dated 2012).

Assay type in all cases: cell-based, human
One data set deals with Flt3 mRNA. As to the kind of experiment: Flt3 mRNA interference by synthesized siRNA, real-time RT-PCR (Example 1). The note with it: for inhibition percentage (%) of the relative mRNA expression level (Flt3 mRNA/GAPDH mRNA): siRNA 200 pmol, Oligofectamin, after 24 hours, vs cells transfected without siRNA. On the procedure:
Each kind of cell selected from HL-60 cells [Flt3 WT (wild-type) low expressing cells; ATCC CCL-240], EoL-1 cells [Flt3 WT (wild-type) highly expressing cells; ECACC 94042252] and MV4-11 cells [Flt3/ITD highly expressing cells; ATCC CRL-9591] was cultured at 37° C. in an RPMI 1640 medium (manufactured by TAKARA BIO INC.) supplemented with 10% by volume fetal bovine serum (FBS) in the presence of 5% by volume CO2.
Then, the cells (2×10^5 cells/nil) were pre-cultured for 24 hours in a 6-well plate, then recovered, and suspended so as to give a density of 1.5×10^5 cells/ml in Opti-MEM (trade name, manufactured by Invitrogen), and the synthesized siRNA was added to the resulting suspension so as to give a final concentration of 200 pmol. Transfection was carried out using Oligofectamin (trade name, manufactured by Invitrogen) in an amount of 4 μl/reaction, according to an Invitrogen's protocol attached to Oligofectamin (trade name). As a control, the cells were subjected to similar operations without adding the siRNA. The unspecific influence of the siRNA was evaluated using an siRNA to a BCR/ABL chimera mRNA.
Confirmation of RNA interference of the target gene was carried out by determining change in mRNA level by a real-time RT-PCR method as shown below.
Using Oligofectamin (trade name, manufactured by Invitrogen), each kind of cell was transfected with the synthesized siRNA. After 24 hours, whole RNA was extracted from the resulting cells with TRIzol™ reagent (manufactured by Invitrogen), and the resulting product was treated with DNaseI (manufactured by TAKARA BIO INC.). The transfection, the extraction of the whole RNA and the treatment with DNaseI were carried out according to a manufacturer's protocol of the reagent used.
The real-time PCR method was carried out using a Real Time One Step RNA PCR Kit (trade name, manufactured by TAKARA BIO INC.), 100 ng of the resulting RNA as a template and a pair of primers (each 20 pmol), that is, an oligonucleotide having the nucleotide sequence of SEQ ID NO: 13 and an oligonucleotide having the nucleotide sequence of SEQ ID NO: 14. In the real-time RT-PCR method, change in fluorescence based on SYBER Green I (manufactured by TAKARA BIO INC.) was determined with Light Cycler (trade name, manufactured by Roche). The RNA level was standardized by similarly determining GAPDH mRNA with primers set forth in SEQ ID NOs: 15 and 16.
The PCR conditions were as follows: after incubation was carried out at 95° C. for 30 seconds, the reaction was carried out in 40 cycles each consisting of the reaction at 95° C. for 1 second, then at 60° C. for 10 seconds, and at 72° C. for 30 seconds.
The inhibition percentage (%) of the relative mRNA expression level (Flt3 mRNA/GAPDH mRNA) changed by using the synthesized siRNA, as calculated assuming that the relative mRNA expression level (Flt3 mRNA/GAPDH mRNA) of the cells only subjected to each operation of the transfection without adding the synthesized siRNA was 100%, was shown in Table 1.
(Real-time PCR tracks product formation cycle by cycle.)

In data set [1] the test system is HL60 cells (WT-low expressing). As to the kind of experiment: cell growth activity, Premix WST1 (Example 2). On the procedure: The cells placed in a 96-well plate at a density of 2×10^4 cells/well were cultured in an RPMI medium (containing 10% by volume FBS). The cells were transfected with each of the synthesized (10 nM each) siRNAs, and after 20 hours, the cell growth activity was determined with Premix WST1 reagent (trade name, manufactured by TAKARA BIO INC.). Relative growth ability (%) compared with the growth ability of the control (cells subjected to transfection without adding an siRNA) was determined. Each experiment was carried out with n=3, and the mean was determined.

Data set [2] has as its system MV4-11 (ITD mutation) cells. As to the kind of experiment: growth inhibition by siRNA3 in combination with kinase inhibitor AG1295, WST-1 (Example 4). As to conditions: siRNA3 alone, 1.2 μM at electroporation, 0 μM AG1295, 72 hours. On the procedure:
The growth inhibitory activity of treatment with a combination of the composition (synthesized siRNA3) of the present invention and a kinase inhibitor on MV4-11 (ITD mutation) cells was examined. The synthesized siRNA3 used was the same as in item (1) of Example 1 above. As the kinase inhibitor, AG1295 (manufactured by CALBIOCHEM) having high specificity to ITD mutation cells was used.
In the same manner as in item (2) of Example 1 above, MV4-11 cells were cultured at 37° C. for 24 hours in a medium obtained by supplementing 10% by volume fetal bovine serum (FBS) to an RPMI 1640 medium (manufactured by TAKARA BIO INC.) (referred to hereinafter as a culture medium) in the presence of 5% by volume CO2. Then, the MV4-11 cells (1×10^6 cells/ml) suspended in Opti-MEM (trade name, manufactured by Invitrogen) were transferred to a cuvette (manufactured by BIO RAD; gap of 4 mm), and siRNA3 was added to the cuvette so as to give a final concentration of 1.2 μM. Then, the cuvette was set in Gene Pulser Xcell (trade name, manufactured by BIO RAD) and thereafter pulsed with electric field intensity of 650 V/cm for 25 msec. Then, the suspension of the cells in the cuvette was added to, and suspended in, a 4-fold excess volume of the culture medium and dispensed onto a 96-well plate so as to give an amount of 100 μl/well. […]
4 mM AG1295 (dissolved in DMSO) was diluted with the above-mentioned culture medium to prepare AG1295 dilutions at a concentration of 10 μM, 6 μM and 0 μM (0.25% by volume DMSO) and added so as to give an amount of 100 μl/well to the 96-well plate prepared in step (2) above and cultured at 37° C. in the presence of 5% by volume CO2. Seventy-two hours after the culture was initiated, the growth activity of the cells was determined using Premix WST-1 reagent (trade name, manufactured by TAKARA BIO INC.) according to a manufacturer's protocol. Each experiment was carried out with n=6, and the mean was determined. The relative growth ratio (%) to the growth ability of the cells transfected with the control siRNA/0 μM AG1295 was determined. […]
For orientation: Tetrazolium dyes change colour on reduction, which living cells bring about.

[3] abbreviates: MV4-11 (ITD mutation-highly expressing).

Consider “siRNA3: siRNA to juxtamembrane region (Flt3/JMD region) (target SEQ ID NO: 7); sense SEQ ID NO: 8, antisense SEQ ID NO: 9 (sense UAUGAAUAUGAUCUCAAAUTT; antisense AUUUGAGAUCAUAUUCAUATT; chemistry not given here)”, for which the “Relative ratio of inhibition defining RNA interference effect in EoL1 as 1” value is “(1)” in the data set with Flt3 mRNA (EoL1 (WT-highly expressing), the reference itself) and “(1)” in the data set on Flt3 mRNA (setting [3]). Besides, the “inhibition percentage (%) of the relative mRNA expression level (Flt3 mRNA/GAPDH mRNA)” value in the data set on Flt3 mRNA (EoL1 (WT-highly expressing)) is listed as 63%; with Flt3 mRNA (HL60 (WT-low expressing)), 38%; in the data set on Flt3 mRNA (setting [3]), 65%. Besides, the “selective inhibition of Flt3 mRNA expression relative to the inhibition ratio in the Flt3 low expressing cells” value in the data set on Flt3 mRNA (Flt3 highly expressing cells vs Flt3 low expressing cells) is at least 1.6 fold. Besides, the “inhibition of Flt3 mRNA expression relative to the cells without using an siRNA” value in the data set on Flt3 mRNA (Flt3 highly expressing cells, regardless of the presence or absence of ITD mutation) came to 65%. Besides, the “Ratio of cell-growth activation defining RNA interference effect in HL60 as 1” value in data set [1] (HL60, the reference itself) was “(1)”. For the same substance, the “Relative growth ability (%) compared with the control” value in data set [1] (HL60, siRNA 10 nM, after 20 hours, n=3 mean, control = transfection without siRNA) worked out at 90.3%. Also, the “growth inhibition as compared with the cells transfected with the control siRNA/0 μM AG1295” value in data set [2] amounted to 83.7%.
